Assays:
IL-1β = test: RTqPCR of mRNA levels of inflammatory cytokine IL-1β; assay type: cell-based, human; conditions: senescent BM-MSCs, 48h, vs untreated senescent BM-MSCs
Protocol: (§1) The experiments were conducted on mesenchymal stromal cells obtained from the bone marrow of a donor: BM-MSCs (Promocell). BM-MSCs were cultured in medium maintenance MSC-GM2 (PromoCell) with the addition of Supplement Mix and Penicillin-Streptomycin 1%, in humid atmosphere at 37°C, with 5% CO2. The proliferative capacity of this cell model was evaluated and characterized and the cellular senescence was assessed using p16, p21 expression and beta-galactosidase activity (data not shown). […]
(§2) The anti-inflammatory activity of the individual ingredients and the synergy between them have been assessed by the measurement of mRNA levels of the cytokines involved in inflammatory processes: IL-1β, IL-6, IL-8 and MCP-1 [Lencel et al., 2011; Mulholland et al., 2019]. […]
(§3) The pro-osteogenic activity of the individual components (pro-mineralizing and anti-inflammatory) and their combination was firstly determined through the analysis of the modulation of the mRNA levels of the osteogenic marker COL1α1 in young BM-MSCs cells. […] Furthermore, the pro-mineralizing and anti-inflammatory activity of the individual components and their combination was determined through the analysis of the modulation of the mRNA levels of the osteogenic marker ALP and of the pro-inflammatory markers IL-1β and MCP-1 in senescent BM-MSCs cells. […]

MCP-1 = test: RTqPCR of mRNA levels of inflammatory cytokine MCP-1; assay type: cell-based, human; conditions: senescent BM-MSCs, 48h, vs untreated senescent BM-MSCs
Protocol: as §1, §2, §3

Solubility test = assay type: physicochemical
Description: Before proceeding with the cellular assays, the two ingredients have been tested for their solubility in several solvents, with the aim of identifying the best solubilizing agent (Table 2).

Row | SMILES | IL-1β mRNA levels (IL-1β) | MCP-1 mRNA levels (MCP-1) | Solubility test results: Organic solvents (Solubility test; organic solvents) | Solubility test results: Cremophor (Solubility test; solvent Cremophor) | Solubility test results: DMSO (Solubility test; solvent DMSO) | Solubility test results: PBS (Solubility test; solvent PBS)
1 | OC[C@H]1O[C@@H](Oc2cc(O)cc(/C=C/c3ccc(O)cc3)c2)[C@H](O)[C@@H](O)[C@@H]1O [polydatin] | significantly decrease | significantly decrease |  |  |  | 
2 | CC(C)=CCC/C(C)=C/CC/C(C)=C/CC/C(C)=C/CC/C(C)=C/CC/C(C)=C/CC/C(C)=C/CC1=C(C)C(=O)c2ccccc2C1=O [Vitamin K2, Menaquinone-7] |  |  | Not soluble | Soluble | Not soluble | Not soluble
